Measured values reported in publication PMC9376891 (Nature Communications, 2022).

Target: Rae1_31-368-Nup98_157-213 heterodimer (Rae1-Nup98 complex) (Homo sapiens, UniProt P52948+P78406)
Test: biochemical
Assay type: binding

Sequence of Rae1_31-368-Nup98_157-213 heterodimer (Rae1-Nup98 complex) (P78406 31-368 limits assumed): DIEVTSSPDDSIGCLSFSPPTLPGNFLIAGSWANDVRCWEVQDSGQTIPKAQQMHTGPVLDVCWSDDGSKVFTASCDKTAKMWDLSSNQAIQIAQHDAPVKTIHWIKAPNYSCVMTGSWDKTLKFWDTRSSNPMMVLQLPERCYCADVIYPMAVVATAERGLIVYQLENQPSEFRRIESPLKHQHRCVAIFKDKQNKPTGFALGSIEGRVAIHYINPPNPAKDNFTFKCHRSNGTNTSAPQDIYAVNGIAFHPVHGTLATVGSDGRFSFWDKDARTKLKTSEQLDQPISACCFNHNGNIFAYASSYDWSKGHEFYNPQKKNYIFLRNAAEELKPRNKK
Sequence of Rae1_31-368-Nup98_157-213 heterodimer (Rae1-Nup98 complex) (P52948 157-213 partner limits assumed): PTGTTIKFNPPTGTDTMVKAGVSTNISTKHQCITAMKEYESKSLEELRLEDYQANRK

CC[C@H](C)[C@H](NC(=O)[C@H](CCC(=O)O)NC(=O)[C@H](CCSC)NC(=O)[C@@H]1CCCN1C(=O)[C@H](CCC(N)=O)NC(=O)[C@H](CCC(=O)O)NC(=O)[C@H](CCC(=O)O)NC(=O)[C@H](CC(=O)O)NC(=O)[C@H](CC(C)C)NC(=O)[C@H](CCC(N)=O)NC(=O)[C@H](CO)NC(=O)[C@@H](N)Cc1ccc(O)cc1)C(=O)N[C@@H](CC(=O)O)C(=O)N[C@@H](Cc1ccc(O)cc1)C(=O)N1CCC[C@H]1C(=O)O [SARS-CoV-2 ORF6 C3 + YP]
Kd: 200 nM
